Test results published in publication PMC7933930, “Development of a small molecule that corrects misfolding and increases secretion of Z α1‐antitrypsin” (EMBO Molecular Medicine, 2021).

Experiments:
M α1‐antitrypsin = molecular target: T1, M α1‐antitrypsin (Homo sapiens, UniProt P01009); test: Association kinetics by intrinsic tryptophan fluorescence (stopped flow), M α1‐antitrypsin; type: binding
T1 construct: purified from the plasma of M (wild‐type) and Z α1‐antitrypsin homozygotes; from tissue; host or cells: human plasma of M (wild-type) homozygotes
T1 sequence (P01009 25-418): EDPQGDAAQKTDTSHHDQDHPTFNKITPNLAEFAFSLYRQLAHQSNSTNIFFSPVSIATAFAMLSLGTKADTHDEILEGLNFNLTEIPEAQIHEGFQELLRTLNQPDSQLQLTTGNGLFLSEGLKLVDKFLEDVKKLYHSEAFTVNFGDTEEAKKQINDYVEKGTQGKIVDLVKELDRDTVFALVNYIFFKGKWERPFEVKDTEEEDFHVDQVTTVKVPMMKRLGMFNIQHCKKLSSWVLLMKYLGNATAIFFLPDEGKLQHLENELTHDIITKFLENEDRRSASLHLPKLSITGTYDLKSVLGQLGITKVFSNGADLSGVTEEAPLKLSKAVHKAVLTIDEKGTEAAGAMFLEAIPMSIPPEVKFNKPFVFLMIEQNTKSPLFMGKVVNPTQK
From the text: The shape of the curves and native mass spectrometry (not shown) are consistent with a single high‐affinity compound binding site. No binding of the fluorescent derivative to polymers of Z α1‐antitrypsin was observed, indicating conformational selectivity for the monomeric protein (Fig 1D). The rate of interaction of the compound with the target was monitored through changes in intrinsic tryptophan fluorescence (Dafforn et al, 1999); this property was used to determine the second‐order association rate constants for GSK716 binding to Z (4.1 × 10^4 M^−1 s^−1) and M α1‐antitrypsin (2.1 × 10^2 M^−1 s^−1; Fig 1E and F). […] Therefore, the selectivity of the compound for Z over M α1‐antitrypsin is dominated by the difference in the rate of association rather than dissociation.
Kinetic parameters of GSK716 binding to M, Z, S (Glu264Val) and Baghdad (Ala336Pro) (Haq et al, 2016) α1‐antitrypsin were measured by detecting intrinsic tryptophan fluorescence of the protein (excitation at 280 nm and detection of emission at 320 nm) on a stopped flow apparatus (Applied Photophysics) (Kim & Yu, 1996; Dafforn et al, 1999). […]

neuroserpin = neuroserpin (Homo sapiens, UniProt Q99574); test: Inhibitory activity of neuroserpin against trypsin; type: biochemical
neuroserpin, sequence (Q99574 17-410, species assumed): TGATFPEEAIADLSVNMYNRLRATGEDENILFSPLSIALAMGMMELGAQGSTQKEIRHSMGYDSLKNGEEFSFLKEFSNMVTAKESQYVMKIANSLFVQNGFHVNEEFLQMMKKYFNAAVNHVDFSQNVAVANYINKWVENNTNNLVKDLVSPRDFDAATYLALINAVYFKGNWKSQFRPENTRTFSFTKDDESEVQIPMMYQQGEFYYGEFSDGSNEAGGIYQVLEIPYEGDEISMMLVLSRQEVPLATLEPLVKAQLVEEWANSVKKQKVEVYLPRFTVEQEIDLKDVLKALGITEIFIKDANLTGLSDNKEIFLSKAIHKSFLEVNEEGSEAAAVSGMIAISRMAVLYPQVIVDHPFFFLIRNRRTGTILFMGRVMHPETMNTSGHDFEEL
Method: Figure 5 The effect of GSK716 on serpin inhibitory activity • α1‐Antitrypsin was incubated at varying molar ratios with the model protease bovine α‐chymotrypsin, and the residual protease activity determined. The intercept of the regression with the abscissa reflects the number of molecules of α1‐antitrypsin required to inhibit one molecule of chymotrypsin in the presence (+c) and absence (−c) of 50µM GSK716. Error bars reflect ± SEM of three independent experiments. • M α1‐antitrypsin was incubated with different molar ratios of chymotrypsin and resolved by SDS–PAGE. The position of covalent α1‐antitrypsin‐chymotrypsin complex (cpx), native (nat) and cleaved (clv) is shown. • The inhibitory activity of α1‐antichymotrypsin against chymotrypsin (ach + chym), neuroserpin against trypsin (neus + tryp), and antithrombin against thrombin (atiii + thrombin) was determined in the presence and absence of GSK716. Error bars reflect ± SD of two independent experiments.
GSK716 selectivity and PK properties were profiled in order to investigate the suitability of GSK716 for progression into in vivo studies and the potential for taking it forward as a clinical candidate for testing in humans. Since GSK716 results in loss of inhibitory activity of α1‐antitrypsin, the effect of the compound was assessed on other closely related serpins. […]

CCC[C@@H](NC(=O)c1cccc2c1CC(=O)N2)[C@@H](O)c1cccc(F)c1C [GSK716] was tested, and the koff (M α1‐antitrypsin; calculated from association rate constant and affinity, read-out: first‐order dissociation rate constant) was 1.6e-05 s⁻¹, the kon (M α1‐antitrypsin; read-out: second‐order association rate constant) was 210 M⁻¹ s⁻¹ and the “inhibitory activity of neuroserpin towards its cognate protease” value (neuroserpin) was “did not affect”.
